“Also recorded” adds a separate entry of the source. No end group written: not given here.
Key:
[1] = tested on: HeLa cells; assay: Peptide-induced cell death, counting dead and survived cells under the light microscope; type: cell-based; details: peptides 10 μM, 20 μM, 30 μM, 10 minutes after treatment (FIG. 1B, 3A)
Description: (B) HeLa cells were treated with DMSO or the indicated peptides in increasing doses (10 μM, 20 μM, and 30 μM). % of cell death was determined at 10 minutes after treatment by counting the dead cells and survived cells under the light microscope.
(E) HeLa cells were transfected with substitution mutants of MTD peptide.
HeLa cells were treated with DMSO or with the indicated peptides at increasing doses (10 μM, 20 μM, or 30 μM). % cell death was determined 10 minutes after treatment by counting the dead cells and survived cells (300 cells per sample) under the light microscope.
(D) HeLa cells were treated with indicated amounts of MTD peptide for 1 hour, 2 hours, or 5 hours. % cell death was calculated by counting the dead cells and survived cells (200 to 500 cells per sample) under the light microscope. Data represent the means±SD of three independent experiments.

[2] = tested on: NCI-H460 cells; assay: Peptide-induced cell death in NCI-H460 cells; type: cell-based; details: 5 μM, 2 or 5 hours (FIG. 3C)
Description: (C) NCI-H460 cells were treated with indicated peptides for 2 hours or 5 hours. % cell death was determined as described above.

[3] = tested on: HeLa cells; assay: Measurement of intracellular calcium with Fluo-4-AM; type: cell-based; details: 3 μM peptide
Description: (A-C) HeLa cells were loaded with 3 μM Fluo-4-AM for 30 minutes and then treated with 3 μM of indicated peptides (A: MTD, B: MTDmt3, C: MTDmt5). Fluorescence images and bright-field images were obtained with the laser scanning confocal microscope at 5-second intervals for 5 minutes. Relative fluorescence intensities (F/F0) at two region-of-interests (ROI 1 and 2) were measured at 5-second intervals for 5 minutes.
(E-G) HeLa cells were pretreated in calcium free KRB media alone (E), in KRB media with 10 μM 2-APB and 20 μM Ryanodine (F), or in KRB media with freshly made 30 μM CsA (G) for 2 hours. HeLa cells were then loaded with 3 μM Fluo-4-AM for 30 minutes and treated with 3 μM of MTD peptide. Images were obtained with the laser scanning confocal microscope at 5-second intervals for 5 minutes. Relative fluorescence intensities (F/F0) at two region-of-interests (ROI 1 and 2) were measured at 5-second intervals for 5 minutes.
For Ca^2+ measurements in the cytosol, HeLa cells were cultured in an Lab-Tek™ Chamber glass slide and loaded with Fluo-4-AM (Fluo-4-acetoxymethyl ester) at a final concentration of 3 μM for 30 minutes, followed by washing with PBS (Phosphate buffered saline) at pH 7.4 and the addition of fresh Ca^2+-free Krebs-ringer modified buffer (KRB: 125 mM NaCl, 5 mM KCl, 1 mM Na3PO4, 1 mM MgSO4, 5.5 mM glucose, and 20 mM HEPES, pH 7.4, at 37° C.) containing the indicated peptides. Time-lapse images were obtained at 488 nm excitation with the Argon laser scanning confocal microscope (Leica TCS SP5 Microsystems, Mannheim, Germany) at 10-second intervals for 5 minutes to visualize Fluo-4-AM.

[4] = tested on: HeLa cells; assay: Caspase activation, western blot of cell lysates; type: cell-based; details: 5 μM peptide
Description: (E) After treatment with the MTD peptide, MTDmt4, or MTDmt5 (5 μM) in HeLa cells, cell lysates were prepared at indicated times. Equal amounts of proteins were subjected to the SDS-PAGE and blotted onto PVDF membrane. After blocked with 5% nonfat milk in TBST (10 mM Tris-HCl, pH 7.5, 100 mM NaCl and 0.1% Tween-20), the membrane was probed with anti-caspase-3 (SantaCruz Biotechnology, Inc., Santa Cruz, Calif., USA), anti-caspase-8 (Cell signaling technology, Beverly, Mass., USA), anti-caspase-9 (SantaCruz Biotechnology, Inc., Santa Cruz, Calif.), anti-XIAP (Upstate Biotechnology, Dundee, United Kingdom), or anti-Bid (home-made) antibodies. Anti-actin antibody (Chemicon International, Inc., Temecula, Calif., USA) was used as equal loading control.

[5] = tested on: Isolated mouse liver mitochondria; assay: Isolated mitochondria treated with peptide, transmission electron microscopy; details: 10 μM peptide; 1 hour at 30° C.
Description: (D) Isolated mouse liver mitochondria were treated with buffer (NT), MTD peptide (10 μM), or MTDmt5 peptide (10 μM), and then incubated for 1 hour at 30° C. Mitochondria were harvested by centrifugation (10,000×rpm) and then processed for transmission electron microscopy. Images (upper panel) were obtained with 7,000× magnification, and the relative mitochondrial sizes (lower panel) were calculated by measuring the diameters of about 40 individual mitochondria.
Jurkat cells or isolated mitochondria treated with MTD peptides were harvested by centrifugation and fixed with 2.5% glutaraldehyde for 2 hours followed by washing with 0.2 M sodium cacodylate buffer (pH 7.2) three times for 10-20 minutes. Fixation step was repeated overnight and washed with 0.2 M sodium cacodylate buffer three times. Samples were dehydrated with following sequential solutions 60% ethanol, 70% ethanol, 80% ethanol, 90% ethanol, 95% ethanol, and 100% ethanol twice for 20 minutes at 4° C., and then infiltrated by propylene oxide three times for 20 minutes. Samples were embedded with the mixture of propylene oxide and epon for 6 hours. Electron microscopic images were obtained using the Hitachi H-7600 electron microscope (80 kV, Hitachi, Tokyo, Japan). Mitochondria were isolated from mouse liver as previously described (1).

[6] = tested on: CT-26 cells; assay: Syngeneic animal tumor model; type: in vivo; details: Balb/c mice with CT26 tumors; for tumor size (tumor volume) versus PBS: i.v. tail vein every two days, TU2:MTD 385 μg/mouse, TU3:MTD 230 μg/mouse; for cell death of tumor cells, histochemical examination of tumors: i.v., hematoxylin and eosin
Description: (§1) (A) CT26 cells were injected subcutaneously into the Balb/c mice. Tumor cells were grown for 7 days, and TU2:MTD peptide (385 μg/mouse) or PBS was intravenously injected through the tail vein (n=10 animals/group) every two days from day 7 to day 19. Tumor volume was calculated as the longest diameter×width2×0.5.
(B) TU3:MTD peptide (230 μg/mouse) or PBS were intravenously injected to the Balb/c mice bearing tumor through the tail vein (n=5 animals/group) every two days from day 8 to day 20. Tumor volume was measured as described above.
(C) Tumors were obtained from the mice treated with PBS, TU2:MTD or TU3:MTD upon sacrificing the mice, and were stained with hematoxylin and eosin. Images (400× magnification) at tumor regions were obtained (left), and the boxed region were enlarged (right).
as §1, with “(B)” for “(A)”, “weights were measured after mice were sacrificed.” for “volume was calculated as the longest diameter×width2×0.5.”
(C) TU3:MTD peptide (230 μg/mouse) or PBS were intravenously injected to the Balb/c mice bearing tumor through the tail vein (n=5 animals/group) every two days from day 8 to day 20. Tumor weights were measured as described above.
(§2) We followed the university's institutional guidelines and regulations for animal experiments. Tumors were established in Balb/c mice by subcutaneous injection of CT-26 cells (1.5×10^5 cells) into the mouse as described (14). Tumor volume was calculated as length×width^2×0.5. Tumor cells were grown for 7 to 8 days, and TU2:MTD peptide (385 μg/mouse), TU3:MTD peptide (230 μg/mouse), or PBS was intravenously injected through the tail vein every two days until the mice were sacrificed.

[7] = Toxicity in peptide-injected mice (histology of skin, liver, kidney; body weight); type: in vivo, Balb/c mice; details: for apparent toxic effects in mice: i.v. injected mice; for damage in liver and kidney tissues, microscopic analysis: mice injected seven times every two days; for body weight loss: peptide-injected mice; for cell death in dermis and epidermis regions: peptide-injected tumor-bearing mice, hematoxylin and eosin
Description: (D) Images (400× magnification) of liver and kidney from normal mice or mice treated with, PBS, TU2:MTD or TU3:MTD peptides seven times every two days were obtained after stained with hematoxylin and eosin.
(D) Images (100× magnification) of dermis and epidermis region of normal skin or adjacent to tumor treated with PBS, TU2:MTD or TU3:MTD peptides were obtained after stained with hematoxylin and eosin.
as §2

[8] = tested on: CT26 mouse colon carcinoma cells; assay: Tumor cell killing activity, bright field images; type: cell-based; details: 10 μM peptide (FIG. 9A)
Description: (A) CT26 cells were treated with 10 μM MTD, TU1:MTD, TU2:MTD, or TU3:MTD peptides, and bright field images for indicated peptides were obtained at indicated time points. Representative images of at least 3 individual experiments were presented.

[9] = tested on: HeLa cells; assay: Cell death after transfection of Noxa constructs, counting EGFP-positive dead cells; type: cell-based
Description: (D) HeLa cells were transfected with deletion mutants of Noxa. At 11 hrs, 24 hrs, and 36 hrs after transfection, cell death was determined by counting EGFP-positive dead cells with morphological changes using the fluorescent microscope.
(B) HeLa cells were transfected with WT or with the indicated Noxa mutants. 20 hours after transfection cell death was determined by counting the EGFP-positive dead and survived cells under the fluorescent microscope.
(A) HeLa cells were transfected with either WT Noxa, 4Lmt (L42A, L43A, L45A, L49A), or 5Lmt (L29A, L42A, L43A, L45A, L49A) constructs. At the indicated times after transfection, cell death was determined by counting the EGFP-positive dead cells with morphological changes under the fluorescent microscope.
HeLa cells were transfected with EGFP-Noxa WT and 41-54 in combination with Bcl-2 expression plasmid or in the presence of zVAD-fmk (25 μM). 18 hours after transfection, cell death was determined by counting EGFP-positive dead cells with morphological changes using the fluorescent microscope. Data represent an average±SD of three experiments each with 200 total cells counted.
The percentage of cell death was determined by counting EGFP-positive dead cells with morphology using the fluorescent microscope. Minimally, 300 cells in three separate fields were counted for each measurement.

[10] = tested on: HeLa cells; assay: Cytochrome c release by immunofluorescence; type: cell-based; details: HeLa cells transfected; 2 days in the presence of zVAD-fmk
Description: (B) Plasmids (control vector or Noxa WT fused to GFP) were transfected into HeLa cells. After 2 days in the presence of zVAD-fmk, cytochrome c was stained with anti-cytochrome c antibody. Arrows indicate the diffused cytochrome c staining (upper panel). The release of cytochrome c was analyzed by immunofluorescence in HeLa cells after treatment with MTD peptides (5 μM) (lower panel).

[11] = tested on: HeLa cells; assay: Cell death assayed by cell counting kit-8, with or without caspase inhibitor pre-treatment; type: cell-based; details: 5 μM peptide for 5 hours (FIG. 2C)
Description: (C) HeLa cells were pre-treated with zVAD-fmk (25 μM) or IDN-6556 (25 μM) 1 hour before MTD-peptide treatment. After treatment of 5 μM of R8, ΔR8-MTD, and R8:MTD peptides for 5 hours, cell death was assayed by cell counting kit-8 (Dojindo Molecular Technologies, Rockville, USA).

| Substance | tumor size (tumor volume) versus PBS [6] | cell death of tumor cells, histochemical examination of tumors [6] | apparent toxic effects in mice [7] | damage in liver and kidney tissues, microscopic analysis [7] | body weight loss [7] | cell death in dermis and epidermis regions [7] | tumor cell killing activity [8] | other results |
| --- | --- | --- | --- | --- | --- | --- | --- | --- |
| RRRRRRRRGRQKLLNLISKAA (PTD-MTDmt5 fusion peptide derived from Homo sapiens) | – | – | – | – | – | – | – | cell death-inducing activity (% of cell death) [1]: no killing activity; also recorded: completely lost their cell death-inducing activities; also recorded: no cell death; susceptibility of cells to peptide [2]: not; cytosolic calcium level change [3]: did not induce changes in the cytosolic calcium level; caspase activation [4]: not activated; morphological changes or mitochondrial size changes of isolated mitochondria [5]: did not show any morphological changes or mitochondrial size changes |
| CNGRCVSGCAGRCGGKLLNLISKLF (TU2-MTD fusion peptide derived from Homo sapiens) [TU2:MTD] | significantly smaller tumors | massive cell death of tumor cells | do not show apparent toxic effects | no damages in liver and kidney tissues | no body weight loss | no or little cell death | comparable killing activities to MTD peptide | – |
| CGNKRTRGCGGKLLNLISKLF (TU3-MTD fusion peptide derived from Homo sapiens) [TU3:MTD] | significantly smaller tumors | massive cell death of tumor cells | do not show apparent toxic effects | no damages in liver and kidney tissues | no body weight loss | no or little cell death | comparable killing activities to MTD peptide | – |
| WT Noxa: wild type Noxa (1-54) expressed from pEGFP-Noxa by transfection (MPGKKARKNAQPSPARAPAELEVECATQLRRFGDKLNFRQKLLNLISKLFCSGT; cysteine pairing not given here; also: EGFP fusion (pEGFP-Noxa); UniProt Q13794 1-54, looked up) | – | – | – | – | – | – | – | cell death ([9]; HeLa cells transfected (FIG. 8A)): more than 60%; cell death after over-expression ([9]; HeLa cells, within 11 hrs after transfection (FIG. 1D)): induced cell death within 11 hrs; inhibition of transfection-induced cell death by zVAD-fmk ([9]; HeLa cells, zVAD-fmk 25 μM, 18 hours after transfection (FIG. 10)): significantly inhibited by zVAD-fmk; cytochrome c release from mitochondria [10]: able to release the cytochrome c from mitochondria |
| KLLNLISKLF [ΔR8:MTD] | – | – | – | – | – | – | – | cell death [11]: could not cause cell death; also recorded: no cell death-inducing activity |

— US8877889B2, “Tumor cell-killing peptides” (Industry-Academic Cooperation Foundation, Chosun University, priority 2009, dated 2014)
